Experimental data taken from patent US9695173B2, “Pharmaceutical compositions for the treatment of capillary arteriopathy” (SINOXA PHARMA GMBH, priority 2006, dated 2017).

Columns and labels:
Assay type in all cases: in vivo, rat
male Sprague-Dawley rats [1] = assay: Monocrotaline pulmonary hypertension model, treatment from day 14: right ventricular and systemic pressure
Experimental: (§1) 1 monocrotaline (60 mg/kg; Sigma) was administered to rats on the day of the experiment. For this purpose, the substance was dissolved in 0.5 molar hydrochloric acid and the pH value was then adjusted to 7.4 with 0.5 molar sodium hydroxide solution. The solution was administered to male Sprague-Dawley rats as a single subcutaneous injection in a dose of 60 mg/kg. The same volume of isotonic saline solution was administered to control animals.
(§2) The dosage specifications in this case relate to the free base of the substances. The substances were used as hydrogenmaleate salt or free base. They were introduced into distilled water in the presence of traces of ascorbic acid and administered by oesophageal tube in the morning and in the evening in a volume of 2 mL. The same quantity of water was administered to control animals.
(§3) On day 28 of the experiment, 2 hours after the last administration of the substance, the animals were put under general anesthesia using pentobarbital. Then, a tracheostomy was performed on the animals and the animals were respirated at 10 ml/kg and a frequency of […] (SAR830A/P; IITC). Anesthesia was maintained by inhalation of isoflurane.
The mean arterial pressure and the right ventricular systolic blood pressure were determined. The systemic arterial pressure was measured using a Millar catheter in the left carotid artery. A millar catheter with a pressure sensor (Millar Instruments, model SPR-534) was inserted through the right jugular vein and pushed up to the right ventricle of the heart and used for measuring the right ventricular pressure (RVSP). The signal was amplified by means of a HSE coupler Series 500 and supplied to a registration unit for evaluation.

male Sprague-Dawley rats [2] = assay: Monocrotaline pulmonary hypertension model, treatment from day 14: hydroxyproline (collagen) content of the lung; conditions: monocrotaline 60 mg/kg s.c. day 1; 0.25 mg/kg Lisuride bid or 2.5 mg/kg Terguride bid, days 14-28; right lung day 28; averages ± SEM, N=6
Experimental: as §1, §2
After the pressure measurements had been performed, the rats were perfused with physiological saline solution. The right lung was removed, deep-frozen and processed for determining the collagen content. To this end, the tissue was first homogenized and analyzed, drawing on the method by Berg (Meths Enzymol. 82, 372 (1982)). […] The color complex created was measured photometrically at 560 nm and the hydroxprolin content of the samples was determined by means of a calibration curve. […]

male Sprague-Dawley rats [3] = assay: Monocrotaline pulmonary hypertension model, treatment days 1-28: RVSP and SAP; conditions: monocrotaline 60 mg/kg s.c. day 1, 0.4 mg/kg Terguride bid (table), measured day 28, averages ± SD, N=4
Experimental: as §1
(§4) […] Terguride was introduced into distilled water in the presence of traces of ascorbic acid and administered by oesophageal tube in the morning and in the evening in a volume of 2 mL. The same quantity of physiological saline solution was administered to control animals.
as §3
The mean arterial pressure and the right ventricular systolic blood pressure were determined. The systemic arterial pressure was measured using a Millar catheter in the left carotid artery. […]

male Sprague-Dawley rats [4] = assay: Monocrotaline pulmonary hypertension model, treatment days 1-28: right ventricular hypertrophy; conditions: 0.4 mg/kg Terguride bid (table), dry weights, averages ± SD, N=4
Experimental: as §1, §4
After the pressure measurements had been performed, the rats were perfused with physiological saline solution. The heart was removed and prepared by dissection of the right ventricle, the septum as well as the left ventricle of each heart. The tissue preparations were freeze-dried and the dry weights were then determined by weighing out. For each individual animal, the quotient: weight of the right ventricle/weight of the left ventricle and septum (RV/LV+S) was determined from these animals as a measure for right ventricular hypertrophy.

male Sprague-Dawley rats [5] = assay: Monocrotaline pulmonary hypertension model, treatment days 1-28: muscularization of arterial capillary vessels of the lung; conditions: 0.4 mg/kg Terguride bid (table), lung arterial capillary vessels 20-50 μm, averages ± SD, N=4
Experimental: as §1, §4
The lungs were removed, fixated in formalin and embedded in paraffin. Paraffin sections were obtained and an immunohistochemical double staining was carried out according to standard protocols. Smooth muscle cells of the vessels were stained with an antibody against actin and the endothelium was stained by means of antibodies against von Willebrand factor. […] The vessels were subdivided into 3 categories: non-muscularized vessels with 20%, partially muscularized vessels with >20%, but <70%, and fully muscularized vessels with >70% lining of the cross-section of the vessel with smooth muscle cells.

[6] = monocrotaline 60 mg/kg s.c. day 1, 0.25 mg/kg Lisuride bid or 2.5 mg/kg Terguride bid by oesophageal tube, days 14-28, measured day 28, averages ± SEM, N=6

Compound | RVPsys (systolic pressure in the right ventricle) (male Sprague-Dawley rats [1]; [6]) | Increase in pressure in the right ventricle (in words) (male Sprague-Dawley rats [1]; monocrotaline rats, therapy started 14 days after monocrotaline) | Hydroxyproline content of the lung (male Sprague-Dawley rats [2]) | SAP (systemic arterial pressure) (male Sprague-Dawley rats [1]; [6]) | RVSP (right ventricular systolic pressure) (male Sprague-Dawley rats [3]) | SAP (systemic arterial pressure) (male Sprague-Dawley rats [3]) | RV/LV + S (weight of right ventricle vs. weight of left ventricle and septum) (male Sprague-Dawley rats [4]) | Proportion of fully muscularized vessel (male Sprague-Dawley rats [5]) | Proportion of non-muscularized vessel (male Sprague-Dawley rats [5]) | Proportion of partially muscularized vessel (male Sprague-Dawley rats [5])
CCN(CC)C(=O)N[C@H]1C=C2c3cccc4[nH]cc(c34)C[C@H]2N(C)C1 [Lisuride, 3-(9,10-didehydro-6-methylergoline-8alpha-yl)-1,1-diethylurea] | 43 ± 7 mmHg | reduces | 3.3 ± 0.8 ug/g protein |  |  |  |  |  |  | 
CCN(CC)C(=O)N[C@H]1C[C@@H]2c3cccc4[nH]cc(c34)C[C@H]2N(C)C1 [Terguride, (+)-1,1-diethyl-3-(6-methyl-8α-ergolinyl)-urea] | 39 ± 3 mmHg |  | 2.7 ± 1.2 ug/g protein | 111 ± 7 mmHg | 36.4 ± 3.6 mmHg | 97.5 ± 15.2 mmHg | 0.33 ± 0.08 | 21.3 ± 12.6% | 1.9 ± 1.6% | 57.8 ± 14.6%
